Results from PubChem BioAssay AID278 (DTP/NCI, 2004).
Values joined by “and” are separate entries in the source; they are usually repeats but may differ in a detail not shown here. Equal entries are not always repeated. Results filed as inconclusive are left out.

Tested on: nude mice, A549 intrarenal xenograft, tumor weight change
Experiment: NCI In Vivo Anticancer Drug Screen. Data for tumor model A549 Human Adenocarcinoma of Lung with characteristics of Type II Alveolar Epithelial cells (intrarenal inoculation) in NU/NU BALB/C (nude) mice
Conditions: endpoint: mean tumor weight change, schedule: Q04DX003 (ip), higher = larger tumour
Experimental: The antitumor activity of compounds was measured in mice bearing transplantable tumors. Survival or tumor size were measured and the results are expressed as the measurement made in the treated group (T) divided by the measurement made in the vehicle treated control group (C). The tumor model used in this assay is A549 Human Adenocarcinoma of Lung with characteristics of Type II Alveolar Epithelial cells (intrarenal inoculation) in NU/NU BALB/C (nude) mice

[1] = dose: 150.0 mg/kg/injection, vehicle: saline with Tween-80
[2] = dose: 300.0 mg/kg/injection, vehicle: saline with Tween-80
[3] = dose: 75.0 mg/kg/injection, vehicle: saline with Tween-80

CCCCCCCCCCCCCCCCCCOCC(CO)OC (stereo unspecified)
T/C [1]: 47 % of control and 53 % of control
T/C [2]: 56 % of control and 73 % of control

CC(O)C1(O)C(O)CC(OC2c3cc4c(c(O)c3[C@@H]3C[C@@]2(C)OC32C=c3cc[nH]c3=N2)C(=O)c2cccc(O)c2C4=O)OC1C (stereo partly specified)
T/C (dose: 25.0 mg/kg/injection, vehicle: saline with Tween-80): 65 % of control
T/C (dose: 50.0 mg/kg/injection, vehicle: saline with Tween-80): 55 % of control

CC1(O)C=CC(=O)C=C1
T/C (dose: 25.0 mg/kg/injection, vehicle: water): 121 % of control
T/C (dose: 50.0 mg/kg/injection, vehicle: water): 100 % of control

COc1cc2c(c(OC)c1O)-c1ccc(OC)c(=O)cc1[C@@H](NC(=O)C(F)(F)F)CC2
T/C (dose: 5.0 mg/kg/injection, vehicle: Klucel (hydroxypropylcellulose) (HPC)): 7 % of control
T/C (dose: 7.2 mg/kg/injection, vehicle: Klucel (hydroxypropylcellulose) (HPC)): 116 % of control
T/C (dose: 10.0 mg/kg/injection, vehicle: Klucel (hydroxypropylcellulose) (HPC)): 48 % of control
T/C (dose: 12.0 mg/kg/injection, vehicle: Klucel (hydroxypropylcellulose) (HPC)): 90 % of control

CCCC1CCC(=C2C(=O)CCC2=O)O1 (stereo unspecified)
T/C (dose: 37.5 mg/kg/injection, vehicle: saline with Tween-80): 247 % of control
T/C [3]: 68 % of control
T/C [1]: 109 % of control
T/C [2]: 50 % of control

COc1cccc2c1C(=O)c1c(O)c3c(c(O)c1C2=O)C[C@](O)(C(=O)CO)CC3OC1CC(N)C(OC2CCCCO2)C(C)O1 (stereo partly specified)
T/C (dose: 1.88 mg/kg/injection, vehicle: water): 35 % of control
T/C (dose: 3.75 mg/kg/injection, vehicle: water): 74 % of control
T/C (dose: 7.5 mg/kg/injection, vehicle: water): 28 % of control
T/C (dose: 15.0 mg/kg/injection, vehicle: water): 4 % of control

CCCCOCN(COCCCC)C12CC3CC(CC(C3)C1)C2
T/C (dose: 100.0 mg/kg/injection, vehicle: saline with Tween-80): 123 % of control
T/C (dose: 400.0 mg/kg/injection, vehicle: saline with Tween-80): 203 % of control

O=C1C=C(N2CC2)C(=O)C(N2CC2)=C1N1CC1
T/C (dose: 100.0 micrograms/kg/injection, vehicle: saline): 25 % of control and 29 % of control
T/C (dose: 144.0 micrograms/kg/injection, vehicle: saline + alcohol): -27 % of control
T/C (dose: 240.0 micrograms/kg/injection, vehicle: saline + alcohol): -14 % of control
T/C (dose: 400.0 micrograms/kg/injection, vehicle: saline): 6 % of control

N#Cc1c(N)[nH]c2ccc(Sc3ccccc3)cc12
T/C (dose: 30.0 mg/kg/injection, vehicle: saline): 106 % of control
T/C (dose: 60.0 mg/kg/injection, vehicle: saline): 42 % of control
T/C (dose: 240.0 mg/kg/injection, vehicle: saline): 49 % of control

CN=C(N)N/N=C(\C)c1ccc2sc3ccc(/C(C)=N/NC(N)=NC)cc3c2c1
T/C [3]: 118 % of control
T/C [1]: 95 % of control
T/C [2]: 83 % of control

COc1ccc(C=C(C(=O)CCN(C)C)C(=O)CCN(C)C)cc1
T/C (dose: 50.0 mg/kg/injection, vehicle: saline): 96 % of control
T/C (dose: 200.0 mg/kg/injection, vehicle: saline): 101 % of control

CC(/C=C/C=C/C=C/C=C/C=C/C(O)=C1/C(=O)C(CCC(=O)O)N(C)C1=O)=C\C(C)C(OC1CC(O)C(O)C(C)O1)C(C)C (stereo unspecified)
T/C (dose: 15.88 mg/kg/injection, vehicle: water): 60 % of control
T/C (dose: 31.75 mg/kg/injection, vehicle: water): 61 % of control
T/C (dose: 62.5 mg/kg/injection, vehicle: water): 110 % of control
T/C (dose: 75.0 mg/kg/injection, vehicle: water): 37 % of control
